Measured values reported in paper PMC12512694, “PbrNAC34a- PbrMYB3/65- PbrACO2 cascade plays a role in citrate difference between the pericarp and cortex tissues of pear (P. bretschneideri Rehd.) fruit” (Molecular Horticulture, 2025).

Tested on: PbrACO2
Conditions: citrate to isocitrate conversion; recombinant His-PbrACO2

O=C(O)CC(O)(CC(=O)O)C(=O)O [citrate]
Km: 630 µM
